Data from patent US8758770B2 (Research Development Foundation, priority 2006, dated 2014).
Where no end group is shown, it is not given here.

How the values were obtained:
Type in all cases: in vivo
[1] = Toxicity of oral ACTH administered over an extended time period; settings: orally administered to mice over an extended time period
[2] = test system: EAE in C57BL/6 mice immunized with MOG peptide 35-55; experiment: Oral ACTH treatment of EAE mice, clinical score; design: key to Clinical Score: 0 = no disease to 6 = paraplegia with severe weakness/ataxia
Method: EAE is a T cell mediated inflammatory autoimmune process of the CNS that resembles in some aspects the human demyelinating disease multiple sclerosis. It thus provides a useful animal model for the evaluation of potential therapies for MS. […] This protocol mimics clinical practice since patients are treated with ACTHAR® Gel after they experience a clinical exacerbation of their disease, albeit clinical treatment is via intramuscular injection.
Clinical severity is graded daily by a blinded observer as follows: 0=no disease; 1=minimal or mild hind limb weakness (associated with limp tail); 2=moderate hind limb weakness or mild ataxia (waddling gait and/or poor righting ability); 3=moderate to severe hind limb weakness; 4=severe hind limb weakness or moderate ataxia; 5=paraplegia with no more than moderate four limb weakness; 6=paraplegia with severe four limb weakness or severe ataxia. […]

[3] = test system: EAE in C57BL/6 mice immunized with MOG peptide 35-55; experiment: Spinal cord foci of inflammation after oral ACTH in EAE mice; settings: Ex 1-A, control mock placebo group 4.72±0.34
Method: Following administration, clinical outcome is measured in at least two ways: by comparing the difference between group active treatment scores and placebo group scores from day 26-33 post immunization, and comparing group mean scores directly (day 17-35 post-immunization). Following sacrifice, spinal cords are removed and evaluated independently for foci of inflammation by a blinded observer.

SYSMEHFRWGKPVGKKRRPVKVYPDGAEDQLAEAFPLEF [ACTH]
toxicity [1]: no detectable toxicity
recovery from EAE attack compared to placebo, difference between group active treatment and placebo group scores ([2]; Ex 1-A, 10 or 1000 microgram oral dose, 10 microgram p<0.03, 1000 microgram p<0.05): significantly improved recovery
recovery compared to placebo, comparing group mean scores directly ([2]; Ex 1-A, oral doses of 10, 100, and 1000 microgram): significantly faster recovery
recovery from EAE attack compared to placebo, difference between group active treatment and group placebo scores ([2]; Ex 1-B, 10 IU p<0.0001, 100 IU p<0.0003, 1000 IU p<0.0007): significantly improved recovery
recovery from EAE attack compared to placebo, comparing group mean scores directly ([2]; Ex 1-B, oral 10 and 1000 IU, 10 IU p<0.00001, 100 IU p<0.00006, 1000 IU p<0.00003): significantly improved recovery
Clinical Score ([2]; Table 1, Ex 1-A, ACTH 10 microgram oral daily, day 28, control 2.88): 1.38
Clinical Score ([2]; Table 1, Ex 1-A, ACTH 10 microgram oral daily, day 32, control 3): 1.38
Clinical Score ([2]; Table 1, Ex 1-A, ACTH 10 microgram oral daily, day 33, control 3): 1.375
Clinical Score ([2]; Table 1, Ex 1-A, ACTH 10 microgram oral daily, day 35, control 3.13): 1.38
Clinical Score ([2]; Table 1, Ex 1-A, ACTH 100 microgram oral daily, day 22, control 2.63): 2.5
Clinical Score ([2]; Table 2, Ex 1-B, 1000 IU oral daily, day 40, control […]): 1.13
Clinical Score ([2]; Table 2, Ex 1-B, ACTH 10 IU oral daily, day 32, control […]): 1.38
Clinical Score ([2]; Table 2, Ex 1-B, ACTH 10 IU oral daily, day 33, control 2): 1
Clinical Score ([2]; Table 2, Ex 1-B, ACTH 10 IU oral daily, day 40, control […]): 1.25
Clinical Score ([2]; Table 2, Ex 1-B, ACTH 100 IU oral daily, day 32, control […]): 1.38
Clinical Score ([2]; Table 2, Ex 1-B, ACTH 100 IU oral daily, day 40, control […]): 1.38
mean group inflammatory score (inflammatory foci, spinal cord) ([3]; 10 microgram fed group, p<0.008): 3.05±0.3
mean group inflammatory score (inflammatory foci, spinal cord) ([3]; 1000 microgram fed group, p<0.00002): 2.27±0.23
